Active and inactive are the calls of the source. No cut-off for these calls is given here.
Assays:
HeLa = experiment: Downregulation of miR-30A expression in human HeLa cells at 10 uM incubated for 6 hrs by qRT-PCR analysis; format: functional
HCCLM3 = experiment: Inhibition of cell migration in human HCCLM3 cells assessed as reduction of cell mobility at 1 to 25 uM measured at 24 hrs by well scratch method; format: functional, cell-based; settings: dose 1-25 µM
HepG2 = experiment: Upregulation of pri-miR-122 in human HepG2 cells at 10 uM incubated for 6 hrs by qRT-PCR analysis; format: functional, cell-based
SK-HEP1 = experiment: Downregulation of SUV39H1 expression in human SK-HEP1 cells at 1 to 25 uM by Western blotting analysis; format: functional, cell-based; settings: dose 1-25 µM

CCOC(=O)c1nc(-c2ccc(OC)cc2)oc1C
Activity (HeLa): 60% | inhibition (HCCLM3): Active | Activity (HepG2): Active | Activity (SK-HEP1): Active

Reference: ChEMBL document CHEMBL5137049, “Discovery of a Novel Small-Molecule Inhibitor Disrupting TRBP-Dicer Interaction against Hepatocellular Carcinoma via the Modulation of microRNA Biogenesis” (J Med Chem, 2022)
